Here are results for 3 compounds from patent publication US20060106099A1, “Novel inhibitors of ubiquitin isopeptidases” (priority 2002, published 2006).

pEC50: −log10 of the molar value. Like-named read-outs stand apart in the source and are kept apart here.

What is called pEC50 is −log10 of the EC50, conventionally taken in molar units.

Series [1] deals with ubiquitin isopeptidases. The series can be described thus: In vivo isopeptidase activity after treatment of RKO cells, Ub-PEST. It counts as cell-based, human. The method, then:
(§1) Isopeptidase Assay. It was hypothesized that the punaglandins would inhibit ubiquitin-isopeptidase activity of the proteasome pathway as does the prostaglandin, Δ^12-PGJ2 (1), but with greater potency because of the chlorinated C-10. To validate this theory, cellular isopeptidase enzymatic activity was measured in vitro after treatment with individual punaglandins, PNG 2 (6), PNG 3 (7), and Z-PNG 4 (9) and in vivo after individual treatment with PNG 4 (8) and PNG 6 (10). This activity was determined utilizing the simple isopeptidase substrate, ubiquitin-PEST (Ub-PEST), a full/length ubiquitin (Ub) molecule fused with an 18-amino acid C-terminal peptide extension that most isopeptidases use as a substrate. The polypeptide extension contains regions rich in Pro (P), Glu (E), Ser (S), and Thr (T) residues called PEST motifs that are responsible for rapid degradation of these and other unstable proteins. Ub isopeptidases specifically cleave this peptide extension, yielding free, full-length Ub. Both the fused Ub-PEST (10.5 kDa) and the cleaved, free Ub (8.5 kDa) can be observed via immunochemical detection.
In vivo Isopeptidase Activity. To investigate whether punaglandins can inhibit isopeptidase activity in vivo, isopeptidase activity was analyzed after punaglandin treatment of RKO cells. PNG 4 (8) and PNG 6 (10) were selected for in vivo investigation because they differ only in enone functionality, where (8) is a dienone and (10) an enone. RKO cells were incubated with 1 μM, 4 μM, or 7 μM of PNG 4 (8) and PNG 6 (10). […] As a positive control, cells were treated with a known isopeptidase inhibitor, shikoccin (SK). After 6 h drug treatment, cells were lysed and protein concentration adjusted to 0.3 mg/mL per sample. Each sample was subsequently incubated with 50 μg/mL of Ub-PEST. The reaction was terminated after 20 min and the respective amounts of Ub-PEST (10 kDa) and free Ub product (8.5 kDa) were determined by SDS-PAGE fractionation.

Series [2] concerns p53. The series can be described thus: p53 accumulation ratio in RKO-E6 and RKO cells, punaglandin study. It counts as cell-based, human. The conditions noted are these: 7 μM, 6 h. The method, then:
To determine if punaglandins inhibit p53 degradation by disrupting the proteasome pathway, the accumulation ratio of p53 was determined in RKO and RKO-E6 cells treated with selected punaglandins, PNG 4 (8) and PNG 6 (10). Equally seeded RKO and RKO-E6 cells were treated with vehicle (0.5% DMSO), 50 μM Etoposide, 60 μM PGA2 (3), 7 μM PNG 6 (10), and 7 μM PNG 4 (8). After 6 h incubation with vehicle or drug, cells were lysed and harvester. […] of protein from each lysate was fractionated by SDS-PAGE and probed for p53 protein. The p53 band intensities were then analyzed and quantitated using densitometry. The ratio of p53 in RKO-E6 to RKO cells was calculated by dividing the amount of p53 in RKO-E6 cells by the amount in RKO cells and multiplying by 100 to give percent

The subject of another series is caspase-3. Description: Caspase-3 activity in RKO cells (DEVD-AMC). It counts as cell-based, human. The conditions noted are these: PNG 4 0.5 μM, PNG 6 1 μM, Taxol 1 μM. The procedure: To determine if selected punaglandins, PNG 4 (8) and PNG 6 (10) also induce apoptosis in RKO cells in a time dependent manner, caspase-3 activity was determined. During apoptosis the caspases, a family of cysteinyl aspartate-specific proteases, are activated. These enzymes cleave specific substrates resulting in biochemical and morphological changes associated with apoptosis. Therefore, detection of activated caspases can be used as a biochemical marker for apoptosis. Caspase-3 has substrate specificity for the amino acid sequence Asp-Glu-Val-Asp (DEVD), cleaving after Asp, and therefore caspase activity can be measured by monitoring cleavage of the substrate DEVD-AMC (Asp-Glu-Val-Asp-7-amino-4-[…]).
RKO cells were treated for 4, 8, and 12 h with PNG 4 (8) at 0.5 μM and PNG 6 (10) at 1 μM. Taxol, a known apoptotic inducer at 1 μM, was used as a positive control, and negative control cells were treated with vehicle (0.5% DMSO). Caspase-3 activity rose steadily as expected from 4-12 h in cells treated with PNG 4 (8), PNG 6 (10), and Taxol but remained constant in the untreated control cells.

In the next series the test system is HCT 116 (p53 wt). Description: MTS cytotoxicity, HCT 116 (p53 wt). Format: cell-based. The conditions noted are these: Homo sapiens, 48 h. An excerpt: (§2) Cytotoxicity in Human Colon Tumor (HCT) Cell Lines. To determine if punaglandins elicit cytotoxicity independently of the tumor-suppressor p53, as do other dienone prostaglandins, several cytotoxicity assays were employed. First, cell death effects of all isolated punaglandins were investigated in pairs of isogenic colon cancer cell lines, the HCT 116^+/+ competent cell line and HCT 116^−/− null cell lines. HCT 116^+/+ cells are homozygous for p53^+/+ and p21^+/+; where as, HCT 116^−/− cells lack both alleles for p53 (p53^−/−) or p21 (p21^−/−).
(§3) Each cell line was seeded simultaneously in 96-well plates and incubated for 24 h before treatment with individual punaglandins at various concentrations for 48 additional h. Cytotoxicity was determined using MTS and absorbances were recorded at 490 nm. Half maximal effective concentrations (EC50) and Log EC50s were calculated from a concentration-response curve generated using GraphPad Prism (Table 1).

The test system of another series is HCT 116 (p53^−/−). Description: MTS cytotoxicity, HCT 116 (p53−/−). It counts as cell-based. The conditions noted are these: Homo sapiens, log of EC50 in μM, 48 h, read-out: Log EC50 +/− Standard Error of Log EC50, HCT 116 (p53−/−) (converted).
Text: as §2, §3

A further series deals with HCT 116 (p21 wt). The series can be described thus: MTS cytotoxicity, HCT 116 (p21 wt). Format: cell-based. The following applies: Homo sapiens, log of EC50 in μM, 48 h, read-out: Log EC50 +/− Standard Error of Log EC50, HCT 116 (p21 wt) (converted).
Text: as §2, §3

The next series has as its system HCT 116 (p21^−/−). The series can be described thus: MTS cytotoxicity, HCT 116 (p21−/−). Format: cell-based. The following applies: Homo sapiens, log of EC50 in μM, 48 h, read-out: Log EC50 +/− Standard Error of Log EC50, HCT 116 (p21−/−) (converted).
Text: as §2, §3

A further series concerns RKO. The series can be described thus: MTS cytotoxicity, RKO cells. It counts as cell-based. The following applies: Homo sapiens, 48 h. The procedure:
(§4) Cytotoxicity in Human Colon Tumor (RKO) Cell Lines. Punaglandins (8) and (10) were also assayed for p53-independent cytotoxicity in RKO and RKO-E6 cells. Each cell line was seeded simultaneously in 96-well plates and incubated for 24 h before treatment with PNG 4 (8) and PNG 6 (10) at various concentrations for 48 h. Cytotoxicity was determined using MTS and absorbances were recorded at 490 nm. Log EC50s and EC50s were calculated from a concentration-response curve generated using GraphPad Prism (Table 2).

The subject of the next series is RKO-E6. Description: MTS cytotoxicity, RKO-E6 cells. Format: cell-based. The following applies: Homo sapiens, RKOE6, log of EC50 in μM, 48 h, read-out: Log EC50 +/− Standard Error of Log EC50, RKO-E6 (converted). The method, then:
as §4

Series [3] deals with ubiquitin isopeptidases. The series can be described thus: In vitro isopeptidase activity in HCT 116 lysates, Ub-PEST. It counts as biochemical, human. The conditions noted are these: 2-200 μM, 45 min. The procedure: as §1
In Vitro Isopeptidase Activity. PNG 2 (6), PNG 3 (7), and Z-PNG 4 (9) were initially analyzed for isopeptidase activity in vitro in HCT 116 lysates. Cells were lysed with isopeptidase activity buffer and protein concentration adjusted to 0.3 mg/mL per sample. Each sample was subsequently incubated with 2 μM, 6 μM, 20 μM, 60 μM, or 200 μM of PNG 2 (6), PNG 3 (7), Z-PNG 4 (9), Δ^12-PGJ2 (1), and PGA1 (2) in addition to 50 μg/ml of Ub-PEST. Negative control cells were treated with vehicle (0.5% DMSO) and equivalent Ub-PEST. […] The amount of fused Ub-PEST and free Ub product was determined by SDS-PAGE fractionation.

Series [4] deals with HCT 116 +/+ cells. The conditions noted are these: Mullally et al., University of Utah, 2003; read-out: EC50 in competent HCT 116 cells; cited from earlier work.
The next series deals with isopeptidase. The following applies: cited from earlier work.
Series [5] relates to RKO cells. The series can be described thus: MTT cell viability assay, RKO cells. A general note: Formazan colour is commonly taken as a measure of viable cells.
Experimental: (§6) Cell viability was measured with MTT reagent as described in materials and methods.
(§7) Cell viability was detected by the MTT assay. Briefly, 1×10^5 cells were incubated per well of a sterile, 96-well assay plate with 0-60 μM of test compounds for 48 hours. MTT reagent was added to each well, final concentration of 0.5 mg/mL, and incubated for an additional 3 hours. The media was aspirated and remaining MTT reagent from each well and added 100 μL of HCl:isopropanol (1:24). The absorbance of each sample was measured at 405 nm.
Series [6] has as its system ubiquitin isopeptidases. Description: Ubiquitin isopeptidase activity, Ub-PEST substrate, lysates of treated RKO and HCT 116 cells. It counts as cell-based, human. The conditions noted are these: cells treated 6, 20 or 60 μM, 12 h. Summed up: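 RKO and HCT 116 cells (6×10^5) were treated with 0–60 μM compound for 12 h at 37 °C, then lysed in HEPES/EDTA/CHAPS/5 mM ATP, pH 7.5. Lysates at 0.3 mg/mL protein were incubated with 50 μg/mL Ub-PEST for 45 min at 25 °C. Released 8.5 kDa ubiquitin was quantified by anti-ubiquitin western blot densitometry relative to vehicle (100%).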

Series [7] has as its system ubiquitin isopeptidases. Description: Ubiquitin isopeptidase activity, z-LRGG-AMC substrate, lysates of treated RKO and HCT 116 cells. It counts as cell-based, human. The following applies: cells treated 6, 20 or 60 μM, 12 h. In outline:
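RKO and HCT 116 cells were treated 12 h at 37° C with 6, 20 or 60 μM compound. Lysates at 0.5 mg/mL were pre-incubated with 30 μM MG115 (30 min, 4° C) to block proteasome, then given z-LRGG-AMC for 3 h at 37° C. Cleaved AMC was read fluorometrically.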

The test system of series [8] is polyubiquitin conjugates in RKO-E6 cells. Description: Accumulation of polyubiquitin in RKO-E6 cells (immunoblot). It counts as cell-based, human. The conditions noted are these: EC80 or 60 μM, 6-24 h. Summed up: (§5)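 RKO-E6 cells exposed at 37° C for 6, 12 or 24 h to compound concentrations giving 80% cell death at 48 h; for p53, RKO and RKO-E6 cells treated 6 h. Lysates (12.5 μg protein) immunoblotted for ubiquitin or p53 with ECL detection; p53 quantified by densitometry as RKO-E6/RKO ratio.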

For series [9], the system named is p53. Description: p53 accumulation, ratio RKO-E6 cells/RKO cells (immunoblot, densitometry). It counts as cell-based, human. The conditions noted are these: 6 h; etoposide 50 μM, MG115, NSC-302979, DBA 20 μM, others 60 μM. In outline:
as §5
For orientation: Immunoblotting shows a protein as a band on a membrane.

The test system of series [10] is RKO cells.
Experimental: as §6, §7
Series [11] relates to HCT 116 +/+ cells.
Experimental: as §6, §7
For series [12], the system named is HCT 116 +/+ cells. The series can be described thus: MTT cell viability assay, HCT 116 p53 +/+ cells. The following applies: 48 h, MTT, isogenic pair.
Experimental: as §6, §7

Experimental for HCT 116 −/− cells: as §6, §7

On to `CCCCC/C=C\C[C@@]1(O)C=C(Cl)C(=O)/C1=C/[C@H](OC(C)=O)[C@H](CCCC(=O)OC)OC(C)=O` [PNG 4], for which the “Ub-Pest degradation, % of the control (densitometry)” value with ubiquitin isopeptidases [1] (7 μM, 6 h) was 67%. Further, the “concentration of noticeable inhibition of Ub-PEST degradation” value in the series on ubiquitin isopeptidases [1] (6 h treatment) worked out at 7 µM. Besides, the “accumulation of p53 in RKO and RKO-E6 cells” value in the series on p53 [2] is given as “showed enhanced accumulation of p53”. Further, the “Caspase-3 activity from 4-12 h” value with caspase-3 is listed as “rose steadily”. Besides, the pEC50 is around 6.46 in the series with HCT 116 (p53 wt) (average over the three compounds, read-out: average EC50 of PNG 3, PNG 4 and PNG 6, cytotoxicity in HCT 116 cell lines); 6.51 in the series with RKO (read-out: EC50 in RKO cell lines, punaglandins). Also, the EC50 with HCT 116 (p53 wt) (log of EC50 in μM, read-out: Log EC50 +/− Standard Error of Log EC50, HCT 116 (p53 wt) (converted)) was 0.331 µM; in the series with HCT 116 (p53^−/−) it was 0.355 µM; with HCT 116 (p21 wt) it was 0.339 µM; with HCT 116 (p21^−/−), 0.282 µM; in the series with RKO (log of EC50 in μM, read-out: Log EC50 +/− Standard Error of Log EC50, RKO (converted)), 0.309 µM; with RKO-E6, 0.372 µM.
With `CCCCC[C@H](O)/C=C/[C@H]1C=CC(=O)[C@@H]1CCCCCCC(=O)O` [PGA1], in the series with ubiquitin isopeptidases [3], the “inhibition of Ub-PEST degradation in HCT 116 lysates” value is given as “no detectable inhibition”. In addition, the pEC50 was 4.94 with HCT 116 +/+ cells [4] and 4.47 in the series on RKO cells [5] (read-out: EC50 in RKO cell lines, prostaglandins for comparison, comparison values in the text). Moreover, in the series with isopeptidase, the “isopeptidase inhibition relative to Δ12-PGJ2” value is listed as “significantly less potent”.
With `CCCCC[C@H](O)/C=C/C1=C(CCCCCCC(=O)O)C(=O)CC1` [PGB1], the “inhibition of isopeptidase cleavage of Ub-PEST” value in the series with ubiquitin isopeptidases [6] is listed as “did not inhibit isopeptidase activity”. Also, the “inhibition of z-LRGG-AMC hydrolysis by ubiquitin isopeptidases” value with ubiquitin isopeptidases [7] is listed as “did not”. The “cellular accumulation of polyubiquitin conjugates” value in series [8] was “did not cause appreciable cellular accumulation of ubiquitin conjugates”. For the same compound, the “ratio of p53 protein [RKO-E6 cells/RKO cells]” value with p53 [9] is “significantly less than unity”. For the same compound, the pEC50 with RKO cells [10], with RKO-E6 cells, in the series with HCT 116 +/+ cells [11] and in the series with HCT 116 −/− cells was below 4.22 throughout. For the same compound, in the series on isopeptidase, the “isopeptidase inhibition relative to Δ12-PGJ2” value is “inactive”. The “cell death in RKO compared with RKO-E6 cells” value in the series with RKO cells [5] (48 h, MTT, isogenic pair) is listed as “did not cause significant cell death”. Besides, the “cell death in HCT 116 +/+ compared with HCT 116 −/− cells” value in the series with HCT 116 +/+ cells [12] was “did not cause significant cell death”.
